Laboratory results taken from US7968526B2, “Antisense oligonucleotides directed to ribonucleotide reductase R2 and uses thereof in the treatment of cancer” (Lorus Therapeutics Inc., priority 2003, dated 2011).
Entries after “also recorded” stand apart in the source; their conditions may differ.

Assays:
[1] = test system: MDA-MB-231 human breast cancer cells; assay: MDA-MB-231 breast tumour xenograft in CD-1 nude mice, combination with taxol or doxorubicin (1.7); assay type: in vivo, human cells in mice; conditions: MDA-MB-231 (breast), CD-1; SEQ ID NO:1 10 mg/kg i.v. every other day; Taxol 10 mg/kg i.v. weekly; doxorubicin 5 mg/kg i.v. weekly
Procedure: (§1) After 52 days the mice were sacrificed and the tumours weighed. […] Mitoxantrone was administered intravenously once at the beginning of the treatments at a dose of 2 mg/kg (FIG. 4A) or once a week for four weeks at a reduced dose of 0.8 mg/kg (FIG. 4B). All treatments were stopped at day 50 (FIG. 4A) or 48 (FIG. 4B), respectively. […] Mitoxantrone was administered intravenously once at the beginning of the treatments at a dose of 2 mg/kg (FIG. 5A) or once a week for four weeks at a reduced dose of 0.8 mg/kg (FIG. 5B). All treatments were stopped at day 42 (FIG. 5A) or 38 (FIG. 5B), respectively. […] A2058 is a metastatic melanoma cell line. […] All treatments were stopped at day 24. […] Taxol was administered intravenously once a week at a dose of 10 mg/kg for three (FIG. 7A) or four weeks (FIG. 7C). Doxorubicin was administered intravenously once a week at a dose of 5 mg/kg for first three weeks (FIG. 7A) or for two weeks (FIG. 7C). All treatments were stopped at day 33 (FIG. 7A) or at day 26 (FIG. 7C), respectively. […] In FIG. 7C, antitumour activities were estimated by the inhibition of tumour volume, which was measured with calipers. Each point represents mean tumour volume calculated from 10 animals per experimental group. […] Taxol was administered intravenously once a week for first three weeks and intraperitoneally once a week for next two weeks at a dose of 10 mg/kg. Cisplatin was administered intravenously once a week for first three weeks and intraperitoneally once a week for next two weeks at a dose of 4 mg/kg. All treatments were stopped at day 40. Antitumour activities were estimated by the inhibition of tumour volume, which was measured with caliper. Each point represents mean tumour volume calculated from 9 animals per experimental group.

[2] = test system: MDA-MB435-To.1 human Taxol-resistant breast adenocarcinoma cells; assay: MDA-MB435-To.1 Taxol-resistant breast adenocarcinoma, fat pad, SCID mice (2.5); assay type: in vivo, human cells in mice
Procedure: (§2) BxPC-3 is a gemcitabine resistant call line. […] Gemcitabine was administered intravenously every three days at a dose of 100 mg/kg. Antitumour activities were estimated by the inhibition of tumour volume, which was measured with caliper. Each point represents mean tumour volume calculated from 10 animals per experimental group. […] Hela S3 is a hydroxyurea resistant cell line. […] Hydroxyurea was administered intraperitoneally every day at a dose of 250 mg/kg for 10 days. Cisplatin was administered intravenously once a week for three weeks at a dose of 4 mg/kg. Antitumour activities were estimated by the inhibition of tumour volume, which was measured with caliper. Each point represents mean tumour volume calculated from 10 animals per experimental group. […] Cisplatin was administered intravenously once a week for three weeks at a dose of 4 mg/kg. Taxol was administered intravenously once a week for three weeks at a dose of 10 mg/kg. Antitumour activities were estimated by the inhibition of tumour volume, which was measured with caliper. Each point represents mean tumour volume calculated from 10 animals per experimental group. […] Taxol was administered i.p. once a week at a dose of 10 mg/kg. Antitumour activities were estimated by the inhibition of tumour volume (FIG. 12A), which was measured with calipers. Each point represents mean tumour volume calculated from 10 animals per experimental group. Animals were sacrificed and tumour weights taken at the end of the study (FIG. 12C). […] Cisplatin was administered intravenously once a week for four weeks at a dose of 4 mg/kg. Taxol was administered intravenously once a week for four weeks at a dose of 20 mg/kg. Antitumour activities were estimated by the inhibition of tumour volume, which was measured with caliper. Each point represents mean tumour volume calculated from 9-10 animals per experimental group. […] Cisplatin was administered intravenously once a week for four weeks at a dose of 4 mg/kg. Antitumour activities were estimated by the inhibition of tumour volume, which was measured with caliper. Each point represents mean tumour volume calculated from 10 animals per experimental group. At the end of the study the animals were sacrificed and tumours weighed. […] Taxol was administered i.p. once a week at a dose of 10 mg/kg. Anti-tumour activity was estimated by the inhibition of tumour volume, which was measured with caliper. Each point represents mean tumour volume calculated from 10 animals per experimental group. In addition animals were sacrificed and tumour weights taken at the end of the study. […] CPT-11 was administered i.p. for 5 days at a dose of 20 mg/kg/day. Antitumour activities were estimated by the inhibition of tumour volume, which was measured with caliper. Each point represents mean tumour volume calculated from 10 animals per experimental group. Tumour weights were measured after animals were sacrificed at the end of the treatment. These cells are not resistant to CPT-11 which was used as a positive control.

[3] = test system: SK-OV-3 human ovary adenocarcinoma cells; assay: SK-OV-3 ovary tumour xenograft in CD-1 nude mice, combination with taxol or cisplatin (1.8); assay type: in vivo, human cells in mice; conditions: SK-OV-3 (ovary), CD-1; SEQ ID NO:1 10 mg/kg i.v. every other day 17 times; Taxol 10 mg/kg weekly; Cisplatin 4 mg/kg weekly
Procedure: as §1

[4] = test system: Human taxol-resistant promyelocytic leukaemia cells (HL-60); assay: HL-60 taxol-resistant promyelocytic leukaemia tumour in SCID mice (2.7); assay type: in vivo, human cells in mice; conditions: SEQ ID NO:1 10 mg/kg i.v. every other day
Procedure: BxPC-3 is a gemcitabine resistant call line. […] Gemcitabine was administered intravenously every three days at a dose of 100 mg/kg. Antitumour activities were estimated by the inhibition of tumour volume, which was measured with caliper. Each point represents mean tumour volume calculated from 10 animals per experimental group. […] Hela S3 is a hydroxyurea resistant cell line. […] Hydroxyurea was administered intraperitoneally every day at a dose of 250 mg/kg for 10 days. Cisplatin was administered intravenously once a week for three weeks at a dose of 4 mg/kg. Antitumour activities were estimated by the inhibition of tumour volume, which was measured with caliper. Each point represents mean tumour volume calculated from 10 animals per experimental group. […] Cisplatin was administered intravenously once a week for three weeks at a dose of 4 mg/kg. Taxol was administered intravenously once a week for three weeks at a dose of 10 mg/kg. Antitumour activities were estimated by the inhibition of tumour volume, which was measured with caliper. Each point represents mean tumour volume calculated from 10 animals per experimental group. […] Taxol was administered i.p. once a week at a dose of 10 mg/kg. Antitumour activities were estimated by the inhibition of tumour volume (FIG. 12A), which was measured with calipers. Each point represents mean tumour volume calculated from 10 animals per experimental group. Animals were sacrificed and tumour weights taken at the end of the study (FIG. 12C). […] Cisplatin was administered intravenously once a week for four weeks at a dose of 4 mg/kg. Taxol was administered intravenously once a week for four weeks at a dose of 20 mg/kg. Antitumour activities were estimated by the inhibition of tumour volume, which was measured with caliper. Each point represents mean tumour volume calculated from 9-10 animals per experimental group. […] Cisplatin was administered intravenously once a week for four weeks at a dose of 4 mg/kg. Antitumour activities were estimated by the inhibition of tumour volume, which was measured with caliper. Each point represents mean tumour volume calculated from 10 animals per experimental group. At the end of the study the animals were sacrificed and tumours weighed. […] Taxol was administered i.p. once a week at a dose of 10 mg/kg. Anti-tumour activity was estimated by the inhibition of tumour volume, which was measured with caliper. Each point represents mean tumour volume calculated from 10 animals per experimental group. […] Antitumour activities were estimated by the inhibition of tumour volume, which was measured with caliper. Each point represents mean tumour volume calculated from 10 animals per experimental group. Tumour weights were measured after animals were sacrificed at the end of the treatment. […]

[5] = test system: MDA-CDDP-S4 human in vivo-selected Cisplatin-resistant breast adenocarcinoma cells; assay: MDA-CDDP-S4 Cisplatin-resistant breast adenocarcinoma, fat pad, SCID mice (2.3); design: species or system human cells in mice; conditions: MDA-CDDP-S4 (breast), Cisplatin resistant, SCID; SEQ ID NO:1 10 mg/kg i.v. every other day 9 times; Taxol 10 mg/kg, Cisplatin 4 mg/kg i.v. weekly x3
Procedure: as §2

[6] = test system: MDA-CDDP-S4 human in vivo-selected Cisplatin-resistant breast adenocarcinoma cells; assay: MDA-CDDP-S4 Cisplatin-resistant breast adenocarcinoma, fat pad, CB-17 SCID mice, combination with Taxol (2.4); design: species or system human cells in mice; conditions: MDA-CDDP-S4 (breast), Cisplatin resistant, SCID, SEQ ID NO:1 10 mg/kg i.v. every other day, Taxol 10 mg/kg i.p. weekly
Procedure: as §2

[7] = test system: A498 human kidney cancer cells; assay: A498 kidney tumour xenograft in SCID mice, controls and chemotherapeutics (Example 7); assay type: in vivo, human cells in mice; conditions: oligonucleotides 10 mg/kg/2 days i.v., 5-FU 13 mg/kg/day×5, vinblastine 1 mg/kg/week, gemcitabine 100 mg/kg/week
Text: CD-1 athymic female nude mice, BALB/c nu/nu nude mice, SCID, and SCID beige mice were purchased from Charles River Laboratories (Montreal, Canada) and experiments were typically initiated when the mice were 6-7 weeks old. […] Each experimental group typically contained 10 mice. After the size of tumour reached a mean tumour volume of 50-100 mm^3, treatment was initiated. […] Anti-tumour activity was estimated by the measurement of tumour volume with a calliper at two-three day intervals. Tumour volume was calculated by a formula L×W×H/2, where L indicates length, W indicates width and H indicates height. Within 24 hours after the last treatment, the animals were sacrificed and tumour and body weights were measured. Results of statistical analyses of the data are presented as P values in the figure legends.
Three additional treatment groups received: 5-FU (13 mg/kg/day×5), vinblastine (1 mg/kg/week) and gemcitabine (100 mg/kg/week). […] Caliper measurements at 1-week intervals were used to calculate tumour volumes. Each point in FIG. 28C represents mean tumour volume calculated from 10 animals per experimental group (with the exception of SEQ ID NO: 1 which was 8 animals). […] After 54 days the mice were sacrificed and the A498 tumours weighed. Each bar represents the mean tumour weight and standard error calculated for each treatment group.

[8] = test system: Caki-1 human renal cancer cells; assay: Caki-1 renal tumour xenograft, combination with 5-FU or vinblastin (1.3); assay type: in vivo, human cells in mice; conditions: Caki (renal), CD-1 mouse as printed; SEQ ID NO:1 10 mg/kg i.v. every other day; 5-FU 13 mg/kg/day i.p.; vinblastin 0.6 mg/kg/week i.p.
Text: All treatments were stopped at day 22. […] All treatments were stopped at day 32. […] All treatments were stopped at day 36.

Row | SMILES | Tumour weight as % of saline control [1] [%] | Tumour weight as % of saline control ([2]; MDA-MB435-To.1 (breast), Taxol resistant, SCID, SEQ ID NO:1 10 mg/kg i.v. every other day 15 times, Taxol 20 mg/kg, Cisplatin 4 mg/kg i.v. weekly x4) [%] | Antitumour effect (FIG. 13) ([2]; MDA-MB435-To.1 Taxol-resistant, SCID mice, SEQ ID NO:1 10 mg/kg i.v. every other day, Cisplatin 4 mg/kg, Taxol 20 mg/kg i.v. weekly) | tumour volume data as percentage of saline control [3] [%] | Tumour weight as % of saline control ([4]; HL-60 (leukemia), Taxol resistant, SCID, Taxol 10 mg/kg i.p. weekly) [%] | Antitumour effect (FIG. 15) ([4]; HL-60 taxol-resistant, SCID mice, taxol 10 mg/kg i.p. weekly) | Tumour weight as % of saline control [5] [%] | Tumour weight as % of saline control ([6]; first of two printed values (study and repeat)) [%] | Tumour weight as % of saline control ([6]; second of two printed values (study and repeat)) [%] | Effect on tumour growth (volume and weight) [7] | Tumour weight as % of saline control [8] [%]
1 | CC(=O)O[C@H]1C(=O)[C@@]2(C)[C@H]([C@H](OC(=O)c3ccccc3)[C@]3(O)C[C@H](OC(=O)[C@H](O)[C@@H](NC(=O)c4ccccc4)c4ccccc4)C(C)=C1C3(C)C)[C@]1(OC(C)=O)CO[C@@H]1C[C@@H]2O [Taxol, Paclitaxel, reference compound] | 58 | 109 | ineffective against Taxol-resistant tumour | 49 | 119 | no effect on tumour growth or weight | 32 | 26 | 61 |  | 
2 | CC[C@]1(O)C[C@@H]2CN(CCc3c([nH]c4ccccc34)[C@@](C(=O)OC)(c3cc4c(cc3OC)N(C)[C@H]3[C@@](O)(C(=O)OC)[C@H](OC(C)=O)[C@]5(CC)C=CCN6CC[C@]43[C@@H]65)C2)C1 [Vinblastine, vinblastine] |  |  |  |  |  |  |  |  |  | ineffective in stabilization of the tumours; also recorded: at best, a delay in the rate of tumour growth | 26
